Where “and” joins values, the source holds several entries; their conditions need not be identical. Identical values can stand only once. Like-named read-outs stand apart in the source and are kept apart here.
Key:
BioA = BioA (Mycobacterium tuberculosis, UniProt P9WQ81); assay: BioA Ki determination (tight binding, Morrison equation, 5 nM BioA); type: biochemical
Mtb H37Rv [1] = assay: Supplementation experiments in Mtb (KAPA, DAPA, DTB, biotin); type: cell-based, Mycobacterium tuberculosis
S. aureus = assay: MIC screening: S. aureus; type: cell-based
Text: Supplement media-1.docx, table 4: Supplemental Table S4. MIC screening of C48 against a panel of pathogens and strains | column: C48 MIC (µM)^b

Mtb H37Rv [2] = type: in vivo, BALB/c mice; settings: for spleen CFU: Day 42, standard acute model, BALB/c, per mouse
[3] = p.o. 25 mg/kg, CD-1 mice
[4] = p.o.; for C48 in Plasma / C48 in lung: CD-1 mice
K. pneumoniae ATCC 43816 = assay: MIC screening against Gram-negative pathogens: K. pneumoniae
Description: MIC measurements were based on a method previously described[6]. Overnight liquid cultures of E. coli BW, E. coli C0244, A. baumannii ATCC 17978, K. pneumoniae ATCC 43816, P. aeruginosa PA01 and E. faecium ATCC 19434 strains were inoculated with a single colony from a freshly streaked agar plate of the corresponding bacterial strain and cultured in M9 minimal medium supplemented with amino acids[6]. The bacterial culture was prepared by washing 1 mL of overnight culture in PBS pH 7.4 (x3), then diluted to OD600 = 0.5 and used to inoculate 1:1000 in M9 minimal medium with amino acids in 96-well plates. Compounds were added to 96-well plates in two-fold serial dilutions. The plates were incubated stationary at 37 °C for 18 h, then OD600 was measured. […] The assay was performed in duplicate.

BioA, sequence (P9WQ81 whole entry, looked up): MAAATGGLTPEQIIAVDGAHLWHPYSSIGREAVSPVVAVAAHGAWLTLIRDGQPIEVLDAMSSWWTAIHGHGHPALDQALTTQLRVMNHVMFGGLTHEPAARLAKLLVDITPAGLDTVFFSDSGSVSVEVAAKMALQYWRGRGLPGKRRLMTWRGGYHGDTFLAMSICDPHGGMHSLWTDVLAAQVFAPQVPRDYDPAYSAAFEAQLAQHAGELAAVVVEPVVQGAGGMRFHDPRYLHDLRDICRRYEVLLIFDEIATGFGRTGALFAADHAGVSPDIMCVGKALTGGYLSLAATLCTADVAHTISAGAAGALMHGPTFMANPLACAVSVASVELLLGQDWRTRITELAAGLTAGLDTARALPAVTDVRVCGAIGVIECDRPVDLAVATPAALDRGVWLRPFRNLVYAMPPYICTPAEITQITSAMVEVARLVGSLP

## O=C1CCc2cc(N3CCN(C(=O)c4ccc(F)c(Br)c4)CC3)ncc21 [C48]
BioA; 5 nM BioA, Morrison analysis, read-out: BioA inhibition constant (Ki)
  Ki: 0.2 nM
BioA; Fig. 2A, [Inhibitor C48] 0.520246 nM, read-out: Fractional Vilocity (Vi/Vo %)
  remaining activity at 0.000520246 µM: 104%
BioA; Fig. 2A, [Inhibitor C48] 0.780369 nM, read-out: Fractional Vilocity (Vi/Vo %)
  remaining activity at 0.000780369 µM: 90.9%
BioA; Fig. 2A, [Inhibitor C48] 1.17055 nM, read-out: Fractional Vilocity (Vi/Vo %)
  remaining activity at 0.00117055 µM: 87.2%
BioA; Fig. 2A, [Inhibitor C48] 1.75583 nM, read-out: Fractional Vilocity (Vi/Vo %)
  remaining activity at 0.00175583 µM: 81%
BioA; Fig. 2A, [Inhibitor C48] 2.63374 nM, read-out: Fractional Vilocity (Vi/Vo %)
  remaining activity at 0.00263374 µM: 71.8%
BioA; Fig. 2A, [Inhibitor C48] 3.95062 nM, read-out: Fractional Vilocity (Vi/Vo %)
  remaining activity at 0.00395062 µM: 58.3%
BioA; Fig. 2A, [Inhibitor C48] 5.92593 nM, read-out: Fractional Vilocity (Vi/Vo %)
  remaining activity at 0.00592593 µM: 37.4%
BioA; Fig. 2A, [Inhibitor C48] 7.4 nM, read-out: Fractional Vilocity (Vi/Vo %)
  remaining activity at 0.0074 µM: 29.2%
BioA; Fig. 2A, [Inhibitor C48] 8.88889 nM, read-out: Fractional Vilocity (Vi/Vo %)
  remaining activity at 0.00888889 µM: 20.9%
BioA; Fig. 2A, [Inhibitor C48] 13.3333 nM, read-out: Fractional Vilocity (Vi/Vo %)
  remaining activity at 0.0133333 µM: 9.57%
BioA; Fig. 2A, [Inhibitor C48] 20 nM, read-out: Fractional Vilocity (Vi/Vo %)
  remaining activity at 0.02 µM: 4.24%
BioA; Fig. 2A, [Inhibitor C48] 30 nM, read-out: Fractional Vilocity (Vi/Vo %)
  remaining activity at 0.03 µM: 1.42%
BioA; read-out: Fractional Vilocity (Vi/Vo %)
  remaining activity at […]: 13.1%
Mtb H37Rv [1]; 40 nM biotin
  activity against Mtb cultured with 40 nM biotin: minimal activity
Mtb H37Rv [1]; 2 μM biotin, GAST
  growth inhibitory effect with biotin supplementation: antagonized
Mtb H37Rv [1]; 50 μM DAPA, GAST
  growth inhibitory effect with DAPA supplementation: antagonized
Mtb H37Rv [1]; 50 μM DTB, GAST
  growth inhibitory effect with desthiobiotin (DTB) supplementation: antagonized
Mtb H37Rv [1]; 50 μM KAPA, GAST
  growth inhibitory effect with KAPA supplementation: not
S. aureus
  MIC: inactive
Mtb H37Rv [2]; 100mg/kg C48 p.o.
  spleen CFU: 1075 CFU and 3750 CFU and 6400 CFU and 18666.7 CFU and 6650 CFU and 6725 CFU
Mtb H37Rv [2]; 100 mg/kg, day 14 (values identical to Vehicle Control: baseline)
  bacterial burden per mouse, Fig. 5B: 16500 and 43500 and 12750 and 24500 and 14500
Mtb H37Rv [2]; 100 mg/kg, day 28
  bacterial burden per mouse, Fig. 5B: 170000
Mtb H37Rv [2]; 100 mg/kg, day 42
  bacterial burden per mouse, Fig. 5B: 325000 and 425000 and 1800000 and 566667 and 170000 and 673000
Mtb H37Rv [2]; 200mg/kg C48 p.o.
  spleen CFU: 7225 CFU and 14500 CFU and 8975 CFU and 12750 CFU and 18750 CFU and 7075 CFU
Mtb H37Rv [2]; 200 mg/kg, day 14 (values identical to Vehicle Control: baseline)
  bacterial burden per mouse, Fig. 5B: 16500 and 43500 and 12750 and 24500 and 14500
Mtb H37Rv [2]; 200 mg/kg, day 42
  bacterial burden per mouse, Fig. 5B: 552500 and 365000 and 477500 and 437500 and 560000 and 517500
Mtb H37Rv [2]; 100 and 200 mg/kg p.o.
  efficacy in the conventional mouse model of TB: failed to show efficacy
[3]; 0 h
  plasma concentration: 0
[3]; 0.5 h, 25 mg/kg
  plasma concentration: 10400 and 11300 and 10800
[3]; 1 h, 25 mg/kg
  plasma concentration: 15700 and 11100 and 13300
[3]; 3 h, 25 mg/kg
  plasma concentration: 12000 and 11100 and 12600
[3]; 5 h, 25 mg/kg
  plasma concentration: 14500 and 12000 and 8860
[3]; 7 h, 25 mg/kg
  plasma concentration: 9480 and 6360 and 8380
[4]
  delivery into the lungs: efficiently delivered into the lungs
[4]; 0 hr
  C48 in Plasma: 0 ng/mL
  C48 in lung: 0 ng/mL
[4]; 1 hr
  C48 in Plasma: 17400 ng/mL and 12000 ng/mL and 17900 ng/mL
  C48 in lung: 11264.6 ng/mL and 8012.8 ng/mL and 9904.4 ng/mL
[4]; 3 hr
  C48 in Plasma: 7710 ng/mL and 11800 ng/mL and 12100 ng/mL
  C48 in lung: 3273.1 ng/mL and 5600.4 ng/mL and 5866.1 ng/mL
K. pneumoniae ATCC 43816
  MIC: inactive

— doi:10.1101/2025.09.24.678246 (bioRxiv, 2025)
